Data: patent US20220016060A1, “USE OF SODIUM 2-(3-PENTYLPHENYL)ACETATE IN THE TREATMENT OF ALSTRÖM SYNDROME” (LIMINAL BIOSCIENCES LIMITED, priority 2018, published 2022)
Where “and” joins values, the source holds several entries; their conditions need not be identical. Identical values can stand only once. Entries after “also recorded” stand apart in the source; their conditions may differ.

Assays:
Format in all cases: in vivo, human
ALMS patients [1] = experiment: Liver stiffness by transient elastography (FibroScan) and Metavir score, Phase 2 open-label study; details: for Change from Baseline Transient Elastography, Mean (SD) / Change from Baseline Transient Elastography, Median / Transient Elastography Score / Metavir Score (F): 800 mg daily oral
Description: The study was a Phase 2, single-centre, single-arm, open-label study of sodium 2-(3-pentylphenyl)acetate administered at a total daily oral dose of 800 mg for up to 72 weeks in subjects with ALMS was undertaken. The initial duration of the study was 24 weeks, and subjects were offered to enrol into an extension phase of 36 or 48 weeks. The schedule of study procedures for the enrolment, intervention, and assessments for participants is outlined in FIG. 1. Sodium 2-(3-pentylphenyl)acetate was formulated in soft gelatine capsules containing 200 mg of Sodium 2-(3-pentylphenyl)acetate (amorphous powder) per capsule, polyethylene glycol 400, National Formulary (NF), hydrochloric acid (for pH adjustment), and water. A total of 15 subjects participated in the study. […] Twelve (12) subjects met the eligibility criteria and received at least 1 dose of 800 mg sodium 2-(3-pentylphenyl)acetate, with all 12 subjects completing the initial 24-week treatment period as planned. A 36-week EP was added to the study protocol (Table 1). Ten (10) of the 12 subjects who completed the initial 24-week study drug treatment period continued in the EP, with 6 subjects having a break in treatment until the amendment was implemented before continuing treatment in the EP and 4 subjects continuing in the EP without any break in treatment. Two subjects (826-001-002 and 826-001-014) completed the study after the initial 24-week study drug treatment period. The effect of sodium 2-(3-pentylphenyl)acetate on liver histology in ALMS patients was first assessed by measuring liver stiffness. Liver stiffness is a physical parameter that reflects the health of the liver and is commonly used to diagnose liver diseases. Increased liver stiffness may be associated with hepatic dysfunction.

ALMS patients [2] = experiment: Fasting plasma glucose (FPG); details: for Change from Baseline FPG, Mean / Change from Baseline FPG, Median / FPG: 800 mg daily oral; for FPG: individual subjects
Description: The study was a Phase 2, single-centre, single-arm, open-label study of sodium 2-(3-pentylphenyl)acetate administered at a total daily oral dose of 800 mg for up to 72 weeks in subjects with ALMS was undertaken. The initial duration of the study was 24 weeks, and subjects were offered to enrol into an extension phase of 36 or 48 weeks. The schedule of study procedures for the enrolment, intervention, and assessments for participants is outlined in FIG. 1. Sodium 2-(3-pentylphenyl)acetate was formulated in soft gelatine capsules containing 200 mg of Sodium 2-(3-pentylphenyl)acetate (amorphous powder) per capsule, polyethylene glycol 400, National Formulary (NF), hydrochloric acid (for pH adjustment), and water.

ALMS patients [3] = experiment: Histological examination of adipocyte tissue, average adipocyte area
Description: The study was a Phase 2, single-centre, single-arm, open-label study of sodium 2-(3-pentylphenyl)acetate administered at a total daily oral dose of 800 mg for up to 72 weeks in subjects with ALMS was undertaken. The initial duration of the study was 24 weeks, and subjects were offered to enrol into an extension phase of 36 or 48 weeks. The schedule of study procedures for the enrolment, intervention, and assessments for participants is outlined in FIG. 1. Sodium 2-(3-pentylphenyl)acetate was formulated in soft gelatine capsules containing 200 mg of Sodium 2-(3-pentylphenyl)acetate (amorphous powder) per capsule, polyethylene glycol 400, National Formulary (NF), hydrochloric acid (for pH adjustment), and water. Histological examination of adipocyte tissue in an ALMS subject (before study drug treatment) was characterized by hypertrophy and coalescence of adipocytes, forming giant vesicular vacuolation/steatosis (FIG. 2A). […] Decreases in average adipocyte area from baseline ranged from 11% to 26%. Of note, the largest increase in average adipocyte area from baseline occurred in Subject 826-001-012 (25%), who had ongoing medical histories of hypothyroidism, myocardial ischemia, T2D, chronic kidney disease, and dyslipidemia. This subject was also characterized as obese with a baseline BMI of 38.13 kg/m^2.

[4] = individual subjects, EP Week 12 (Week 36)
[5] = individual subjects, EP Week 24 (Week 48)
[6] = individual subjects, EP Week 36 (Week 60)
[7] = 800 mg, Week 24, mean of subjects
[8] = 800 mg, Week 24, median of subjects

CCCCCc1cccc(CC(=O)[O-])c1.[Na+] [sodium 2-(3-pentylphenyl)acetate]
subjects in whom liver stiffness decreased from baseline (ALMS patients [1]; 8/11 subjects, after treatment with 800 mg): 72.3% | Change from Baseline Transient Elastography, Mean (SD) (ALMS patients [1]; EP Week 12 (Week 36), N=10): −1.41 (2.585) kPa | Change from Baseline Transient Elastography, Median (ALMS patients [1]; EP Week 12 (Week 36), N=10): −1.75 kPa | Change from Baseline Transient Elastography, Mean (SD) (ALMS patients [1]; EP Week 24 (Week 48), N=10): −1.49 (2.335) kPa | Change from Baseline Transient Elastography, Median (ALMS patients [1]; EP Week 24 (Week 48), N=10): −1.45 kPa | Change from Baseline Transient Elastography, Mean (SD) (ALMS patients [1]; EP Week 36 (Week 60), N=9): −2.59 (2.703) kPa | Change from Baseline Transient Elastography, Median (ALMS patients [1]; EP Week 36 (Week 60), N=9): −2.30 kPa | largest increase in liver stiffness from baseline (ALMS patients [1]; Subject 826-001-013, 30-day break in treatment): 1.8 kPa | Metavir score at Week 60 (ALMS patients [1]; Subject 826-001-015, baseline F4): F0/1 (Metavir score F0-F1: absence or mild fibrosis (2.5-7.0 kPa on FibroScan ®)) | number of subjects with at least a 1-grade reduction in liver fibrosis (Metavir scoring system) (ALMS patients [1]; Subjects 826-001-001, -004, -012, -015): 4 subjects | Change from Baseline Transient Elastography, Mean (SD) (ALMS patients [1]; Week 12, N=11): −1.19 (2.160) kPa | Change from Baseline Transient Elastography, Median (ALMS patients [1]; Week 12, N=11): −1.50 kPa | Change from Baseline Transient Elastography, Mean (SD) (ALMS patients [1]; Week 24, N=11): −1.01 (2.308) kPa | Change from Baseline Transient Elastography, Median (ALMS patients [1]; Week 24, N=11): −0.70 kPa | decrease in liver stiffness from baseline (mean) (ALMS patients [1]; after 60 weeks of treatment, p=0.0207): 2.59 kPa | Transient Elastography Score (ALMS patients [1]; individual subjects (one line per subject), Week 12): 7.1 kPa and 6.1 kPa and 4.5 kPa and 5.3 kPa and 3.1 kPa and 10.5 kPa and 19.6 kPa and 7.8 kPa and 12.2 kPa and 12.0 kPa and 50.5 kPa and 7.7 kPa | Metavir Score (F) (ALMS patients [1]; [4]): (F0/1) (Metavir score F0-F1: absence or mild fibrosis (2.5-7.0 kPa on FibroScan ®)); also recorded: (F2) (Metavir score F2: significant fibrosis ≥ 7.1 to < 9.5 kPa on FibroScan ®)); also recorded: (F4) (Metavir score F4: cirrhosis( ≥ 12.5 kPa on FibroScan ®)); also recorded: (F3) (Metavir score F3: severe fibrosis ≥ 9.5 to < 12.5 kPa on FibroScan ®) | Transient Elastography Score (ALMS patients [1]; [4]): 6.6 kPa and 4.2 kPa and 6.5 kPa and 4.6 kPa and 8.9 kPa and 18.6 kPa and 5.8 kPa and 10.2 kPa and 14.7 kPa and 7.4 kPa | Metavir Score (F) (ALMS patients [1]; [5]): (F2) (Metavir score F2: significant fibrosis ≥ 7.1 to < 9.5 kPa on FibroScan ®)); also recorded: (F0/1) (Metavir score F0-F1: absence or mild fibrosis (2.5-7.0 kPa on FibroScan ®)); also recorded: (F4) (Metavir score F4: cirrhosis( ≥ 12.5 kPa on FibroScan ®)); also recorded: (F3) (Metavir score F3: severe fibrosis ≥ 9.5 to < 12.5 kPa on FibroScan ®) | Transient Elastography Score (ALMS patients [1]; [5]): 7.1 kPa and 4.1 kPa and 4.7 kPa and 5.1 kPa and 7.5 kPa and 21.6 kPa and 5.0 kPa and 12.1 kPa and 12.6 kPa and 6.9 kPa | Metavir Score (F) (ALMS patients [1]; [6]): (F2) (Metavir score F2: significant fibrosis ≥ 7.1 to < 9.5 kPa on FibroScan ®)); also recorded: (F0/1) (Metavir score F0-F1: absence or mild fibrosis (2.5-7.0 kPa on FibroScan ®)); also recorded: (F4) (Metavir score F4: cirrhosis( ≥ 12.5 kPa on FibroScan ®)); also recorded: (F3) (Metavir score F3: severe fibrosis ≥ 9.5 to < 12.5 kPa on FibroScan ®) | Transient Elastography Score (ALMS patients [1]; [6]): 7.8 kPa and 3.8 kPa and 5.0 kPa and 3.9 kPa and 17.1 kPa and 6.0 kPa and 8.6 kPa and 12.2 kPa and 5.1 kPa | Metavir Score (F) (ALMS patients [1]; individual subjects, Week 12): (F2) (Metavir score F2: significant fibrosis ≥ 7.1 to < 9.5 kPa on FibroScan ®)); also recorded: (F0/1) (Metavir score F0-F1: absence or mild fibrosis (2.5-7.0 kPa on FibroScan ®)); also recorded: (F3) (Metavir score F3: severe fibrosis ≥ 9.5 to < 12.5 kPa on FibroScan ®); also recorded: (F4) (Metavir score F4: cirrhosis( ≥ 12.5 kPa on FibroScan ®)) | Metavir Score (F) (ALMS patients [1]; individual subjects, Week 24): (F2) (Metavir score F2: significant fibrosis ≥ 7.1 to < 9.5 kPa on FibroScan ®)); also recorded: (F0/1) (Metavir score F0-F1: absence or mild fibrosis (2.5-7.0 kPa on FibroScan ®)); also recorded: (F4) (Metavir score F4: cirrhosis( ≥ 12.5 kPa on FibroScan ®)) | Transient Elastography Score (ALMS patients [1]; individual subjects, Week 24): 7.2 kPa and 7.6 kPa and 5.9 kPa and 5.2 kPa and 4.6 kPa and 8.1 kPa and 21.8 kPa and 5.6 kPa and 8.6 kPa and 14.3 kPa and 48.9 kPa and 9.0 kPa | Change from Baseline FPG, Mean (ALMS patients [2]; EP Week 12 (Week 36), N=10): 0.63 mmol/L | Change from Baseline FPG, Median (ALMS patients [2]; EP Week 12 (Week 36), N=10): -0.10 mmol/L | Change from Baseline FPG, Mean (ALMS patients [2]; EP Week 24 (Week 48), N=10): 0.70 mmol/L | Change from Baseline FPG, Median (ALMS patients [2]; EP Week 24 (Week 48), N=10): -0.10 mmol/L | Change from Baseline FPG, Mean (ALMS patients [2]; EP Week 36 (Week 60), N=9): 1.49 mmol/L | Change from Baseline FPG, Median (ALMS patients [2]; EP Week 36 (Week 60), N=9): 0.00 mmol/L | Change from Baseline FPG, Mean (ALMS patients [2]; EP Week 48 (Week 72), N=3): -0.93 mmol/L | Change from Baseline FPG, Median (ALMS patients [2]; EP Week 48 (Week 72), N=3): 0.00 mmol/L | increase in FPG from baseline (ALMS patients [2]; Subject 826-001-001, 204-day break in treatment): 7.4 mmol/L | increase in FPG from baseline (ALMS patients [2]; Subject 826-001-007, 32-day break in treatment): 7.9 mmol/L | Change from Baseline FPG, Mean (ALMS patients [2]; Week 12, N=11): 0.30 mmol/L | Change from Baseline FPG, Median (ALMS patients [2]; Week 12, N=11): -0.40 mmol/L | Change from Baseline FPG, Mean (ALMS patients [2]; Week 24, N=12): 0.33 mmol/L | Change from Baseline FPG, Median (ALMS patients [2]; Week 24, N=12): 0.30 mmol/L | FPG (ALMS patients [2]; EP Week 12 (Week 36)): 18.0 mmol/L and 4.8 mmol/L and 4.3 mmol/L and 5.2 mmol/L and 9.1 mmol/L and 4.4 mmol/L and 6.5 mmol/L and 6.6 mmol/L and 5.5 mmol/L and 19.9 mmol/L | FPG (ALMS patients [2]; EP Week 24 (Week 48)): 23.3 mmol/L and 3.8 mmol/L and 4.7 mmol/L and 6.9 mmol/L and 10.2 mmol/L and 4.8 mmol/L and 5.7 mmol/L and 6.2 mmol/L and 5.6 mmol/L and 13.8 mmol/L | FPG (ALMS patients [2]; EP Week 36 (Week 60)): 22.7 mmol/L and 5.0 mmol/L and 4.6 mmol/L and 13.8 mmol/L and 5.3 mmol/L (2×) and 4.7 mmol/L and 8.6 mmol/L and 14.9 mmol/L | FPG (ALMS patients [2]; EP Week 48 (Week 72)): 12.5 mmol/L and 5.5 mmol/L and 4.7 mmol/L | FPG (ALMS patients [2]; Week 12): 22.8 mmol/L and 4.6 mmol/L and 4.3 mmol/L and 5.3 mmol/L and 16.9 mmol/L and 7.0 mmol/L and 5.5 mmol/L and 17.6 mmol/L and 6.5 mmol/L and 5.0 mmol/L and 4.7 mmol/L | FPG (ALMS patients [2]; Week 24): 12.9 mmol/L and 4.9 mmol/L and 4.7 mmol/L and 5.7 mmol/L and 11.1 mmol/L and 4.8 mmol/L and 7.2 mmol/L and 7.4 mmol/L and 22.6 mmol/L and 6.5 mmol/L and 13.5 mmol/L and 6.1 mmol/L | Average Adipocyte Area, % Change from Baseline, Mean (ALMS patients [3]; [7]): −9% | Average Adipocyte Area, Mean (ALMS patients [3]; [7]): 5550.7 μm^2 | Average Adipocyte Area, % Change from Baseline, Median (ALMS patients [3]; [8]): −12% | Average Adipocyte Area, Median (ALMS patients [3]; [8]): 5195.1 μm^2 | subjects in whom average adipocyte area decreased from baseline (ALMS patients [3]; 6/9 subjects, after 24 weeks): 66.7% | largest increase in average adipocyte area from baseline (ALMS patients [3]; Subject 826-001-012, after 24 weeks): 25% | histological examination of adipocyte tissue (ALMS patients [3]; an ALMS subject, after 24 weeks of treatment with 800 mg, FIG. 2B): more distinct adipocytes were seen that were smaller in size with no observed coalescence
